This note sets out measurements from US8703722B2, “Inhibitors of F18+ E coli binding” (priority 2008, dated 2014).

For test [1], the system named is F4ac-expressing E. coli strain GIS 26. The test is described as follows: In vitro villous adhesion assay after treatment of porcine villi with agents (control strain). Format: cell-based, Escherichia coli. The following applies: villi treated 1 h at room temperature; 1% Triton X-100; 10 mM NaIO4 in 0.2M sodium acetate pH 4.5. The source says: (§1) The nature of the F18R on porcine small intestinal villous enterocytes was investigated using an in vitro villous adhesion inhibition assay (Cox, E., Houvenaghel, A., 1993. Vet. Microbiol. 34(1), 7-18; Verdonck, F., Cox, E., van Gog, K., Van der Stede, Y., Duchateau, L., Deprez, P., Goddeeris, B. M., 2002. Vaccine 20(23-24), 2995-3004). Briefly, a 20 cm intestinal segment was collected from the mid jejunum of a euthanized pig, rinsed three times with ice cold PBS, and fixed with Krebs-Henseleit buffer (160 mM, pH 7.4) containing 1% (v/v) formaldehyde for 30 min at 4° C. Thereafter, the villi were gently scraped from the mucosae with a glass slide and stored in Krebs-Henseleit buffer at 4° C. Treatment of villi with acetone, methanol, 1% Triton® X-100, 10 mM NaIO4 in 0.2M sodium acetate, pH 4.5, or 0.2M sodium acetate, pH 4.5, without NaIO4, respectively, was performed at room temperature on a rotating wheel in a volume of 500 μl during 1 h. Next, the villi were washed 6 times with Krebs-Henseleit buffer followed by addition of 4×10^8 bacteria of the F18 positive reference E. coli strain (107/86), or the F4ac-expressing E. coli strain GIS 26, to an average of 50 villi in a total volume of 500 μl PBS, supplemented with 1% (w/v) D-mannose in order to prevent adhesion mediated by type 1 pili. These mixtures were incubated at room temperature for 1 h while being gently shaken. Villi were examined by phase-contrast microscopy at a magnification of 600, and the number of bacteria adhering along 50 μm brush border was quantitatively evaluated by counting the number of adhering bacteria at 20 randomly selected places, after which the mean bacterial adhesion was calculated.
(§2) To examine the character of the F18R, intestinal villi isolated from four pigs were treated with different agents that affect lipids or carbohydrates on the enterocyte cell membrane. Treatment was followed by assessment of adhesion of F18-fimbriated E. coli to the villus epithelium.

Test [2] relates to F18 positive reference E. coli strain (107/86). Kind of test: In vitro villous adhesion assay after treatment of porcine villi with agents. Format: cell-based, Escherichia coli. The following applies: villi of four pigs treated 1 h at room temperature; 1% Triton X-100; 10 mM NaIO4 in 0.2M sodium acetate pH 4.5.
From the text: as §1, §2

Take `[Na+].[O-][I+3]([O-])([O-])[O-]` [NaIO4]: the “Adhesion of control F4ac-fimbriated E. coli strain to porcine intestinal villi after treatment of the villi” value in test [1] is “abolished”. Further, in test [2], the “Adhesion of F18-fimbriated E. coli to porcine intestinal villi after treatment of the villi” value (shortened to “Adhesion of F18-fimbriated E. coli”) is given as “completely abolished”.

In the case of `CC(C)=O` [acetone], the “Adhesion of control F4ac-fimbriated E. coli strain to porcine intestinal villi after treatment of the villi” value in test [1] is on record as “no or only little effect”. Moreover, the “Adhesion of F18-fimbriated E. coli” value in test [2] was “completely abolished”.

`CO` [methanol]: the “Adhesion of control F4ac-fimbriated E. coli strain to porcine intestinal villi after treatment of the villi” value in test [1] is on record as “no or only little effect”. Moreover, the “Adhesion of F18-fimbriated E. coli” value in test [2] is given as “completely abolished”.

Consider Triton® X-100, for which, in test [1], the “Adhesion of control F4ac-fimbriated E. coli strain to porcine intestinal villi after treatment of the villi” value is reported as “no or only little effect”. For the same compound, the “Adhesion of F18-fimbriated E. coli” value in test [2] is reported as “completely abolished”.
